Here are results for one compound from patent US5847074A, “Phospholipase C-inhibiting peptides” (Kyowa Hakko Kogyo Co., Ltd., priority 1993, dated 1998).

Values after ≈ are worked out from the molar mass of the structure shown. Where a SMILES comes first, the peptide text is derived from it. Bridges are numbered along the chain shown (N, C = ends). The star is where a group is joined. Octanoyl = CCCCCCCC(=O)*

A word on the inhibition: it is the change of the read-out against control, counted positive when it falls. Read a low inhibition as little suppression.

Experiment [1] concerns the target T1, PLC-γ1 (Bos taurus, UniProt P08487).
T1 construct: A sample of PLC-γ1 was prepared from bovine thymus; from tissue; host or cells: bovine thymus
T1 sequence (P08487 1-1291): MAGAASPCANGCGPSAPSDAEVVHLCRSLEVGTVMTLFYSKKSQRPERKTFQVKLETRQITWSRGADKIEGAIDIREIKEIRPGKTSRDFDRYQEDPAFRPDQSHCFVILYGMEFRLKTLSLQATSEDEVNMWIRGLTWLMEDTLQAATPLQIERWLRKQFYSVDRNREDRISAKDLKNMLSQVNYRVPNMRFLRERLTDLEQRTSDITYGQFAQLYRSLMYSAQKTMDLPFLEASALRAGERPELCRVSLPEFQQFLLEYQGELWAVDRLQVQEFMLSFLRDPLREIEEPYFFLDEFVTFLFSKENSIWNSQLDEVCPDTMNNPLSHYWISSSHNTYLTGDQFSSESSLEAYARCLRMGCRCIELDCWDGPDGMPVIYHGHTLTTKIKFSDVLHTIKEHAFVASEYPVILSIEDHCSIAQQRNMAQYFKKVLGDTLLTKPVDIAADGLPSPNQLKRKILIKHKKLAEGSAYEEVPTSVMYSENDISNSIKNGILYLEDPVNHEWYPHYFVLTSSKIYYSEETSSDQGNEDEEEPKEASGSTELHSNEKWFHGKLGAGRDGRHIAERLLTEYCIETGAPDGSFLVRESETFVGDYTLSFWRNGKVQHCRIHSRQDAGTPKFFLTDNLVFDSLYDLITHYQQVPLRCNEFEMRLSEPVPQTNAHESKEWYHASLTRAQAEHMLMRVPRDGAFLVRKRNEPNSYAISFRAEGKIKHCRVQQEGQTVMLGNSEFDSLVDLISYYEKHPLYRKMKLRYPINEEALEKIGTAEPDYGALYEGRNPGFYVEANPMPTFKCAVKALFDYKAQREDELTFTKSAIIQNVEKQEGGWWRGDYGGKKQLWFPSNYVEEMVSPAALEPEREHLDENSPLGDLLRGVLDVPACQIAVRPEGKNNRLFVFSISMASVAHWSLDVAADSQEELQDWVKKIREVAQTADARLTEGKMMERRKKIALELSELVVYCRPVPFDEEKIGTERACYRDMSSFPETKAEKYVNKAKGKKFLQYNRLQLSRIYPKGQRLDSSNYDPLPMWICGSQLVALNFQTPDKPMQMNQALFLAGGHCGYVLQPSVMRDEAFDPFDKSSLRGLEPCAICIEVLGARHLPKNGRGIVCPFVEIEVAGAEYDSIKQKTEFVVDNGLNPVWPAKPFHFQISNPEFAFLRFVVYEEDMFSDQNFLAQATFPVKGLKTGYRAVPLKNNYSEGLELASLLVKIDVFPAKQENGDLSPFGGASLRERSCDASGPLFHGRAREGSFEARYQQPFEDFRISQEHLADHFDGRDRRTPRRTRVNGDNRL
Description: PLC-inhibiting activity ([3H]PIP2 hydrolysis). The format is biochemical. Conditions: test peptide concentration 220 μM; PI-PLC-γ1 from bovine thymus; 37° C., 10 minutes. As to the method: A sample of PLC-γ1 was prepared from bovine thymus according to the method described in Y. Homma et al., Biochem.J., 269, 13 (1990).
A solution having the composition shown in Table 2 was prepared on ice and the reaction was initiated by heating it to 37° C. After incubation for 10 minutes, 2 ml of a chloroform-methanol (2:1, V/V) mixed solution was added to stop the reaction. The produced inositol phosphate was extracted with 0.5 ml of 1N hydrochloric acid. The extract was separated into two liquid phases by centrifugation (2000×g, 3 minutes) and the amount of ^3 H in the supernatant (0.7 ml) was measured with a scintillation counter. […]
Percent inhibition (X) was calculated from the following equation.
where A is the obtained value of specific radioactivity, B is the value of specific radioactivity when the same amount of water was added instead of an aqueous solution of a test peptide, and C is the value of specific radioactivity when the same amount of water was added instead of a sample and an aqueous solution of a test peptide.

Experiment [2] deals with KMS-4 cells. Description: Cell proliferation-inhibiting activity (BrdU incorporation). The format is cell-based. Conditions: test peptide concentration 6 μM, incubation for 17 hours. As to the method:
The cell proliferation-inhibiting activity of the test peptides was determined using a cell proliferation-detecting kit available from Amersham in the following manner. KMS-4 cells (M. Nanba et al., International Journal of Cancer, 32, 697 (1983)) were added to a DMEM medium containing a 10% fetal calf serum (available from Nissui Pharmaceutical) and the cell concentration was adjusted to 1-2×10^4 cells/ml. The resulting cell suspension (1 ml) was then placed in each well of a 24-well plate (available from Corning) and incubated in a CO2 incubator (37° C., 5% CO2) for 2 days. Subsequently, the medium was replaced with a fresh DMEM medium containing a 10% fetal calf serum, and a test peptide was added, followed by incubation for 17 hours. […] The number of cells which incorporated BrdU and the total number of cells were counted within one visual field (about 200 cells) under microscopic examination and the percentage (%) of the stained cell counts per visual field was calculated. […] Cell proliferation-inhibiting activity was expressed by percent cell proliferation inhibition (X) which was calculated from the following equation. […]
On the technique in general: Incorporation of labelled thymidine or its analogues reports DNA synthesis.

The test system of experiment [3] is Proteus vulgaris ATCC6897. The format is cell-based. Conditions: ATCC6897, pH 7. As to the method: Antimicrobial activity was determined by an agar dilution method using a medium consisting of Bacto-tryptone (available from Difco) (3 g/l), meat extract (1 g/l), glucose (1 g/l) and agar (16 g/l) (pH 7.0).

Consider `CCCCCCCC(=O)N[C@H]1CSSC[C@@H](C(N)=O)NC(=O)[C@H](C(C)C)NC(=O)[C@@H]2CCCN2C(=O)[C@H](Cc2ccc(O)cc2)NC(=O)[C@H](CCCNC(=N)N)NC(=O)[C@H](CC(C)C)NC(=O)[C@H](CCCNC(=N)N)NC(=O)[C@H](CCSC)NC(=O)[C@H](CCCCN)NC(=O)[C@H](CCCNC(=N)N)NC(=O)[C@H](Cc2ccc(O)cc2)NC(=O)[C@H](CC(C)C)NC1=O` [Compound (I-4)] (Octanoyl-CLYRKMRLRYPVC-NH2; disulfide 1-13), for which 220 µM produced 56% inhibition in experiment [1]. Besides, the “Inhibition (%) of cell proliferation” value in experiment [2] was determined as 61%. The “minimum inhibitory concentrations (MIC)” value in experiment [3] amounted to 166 µg/mL (≈ 91 µM).
